The text below walks through data of article PMC6315694, “Synthesis of Pseudellone Analogs and Characterization as Novel T-type Calcium Channel Blockers” (Marine Drugs, 2018).

The target of one test is T1, human CaV3.1 (Homo sapiens, UniProt O43497).
T1 construct: expressed in transfected cells; host or cells: HEK 293T, transient transfection (FuGENE HD)
Nature of the test: T-type calcium channel window current FLIPR assay, CaV3.1. The format is cell-based. As to conditions: for IC50: FLIPR window current assay, transiently transfected HEK293T, N = 3, mean ± SEM, read-out: IC50 CaV3.1 (LVA CaVs). The procedure: (§1) The human embryonic kidney 293 (HEK 293) cell lines (from Emmanuel Bourinet, Montpellier, France) stably expressing CaV3.2 or CaV3.3 were cultured under 5% carbon dioxide at 37 °C in Dulbecco’s Modified Eagle Medium (DMEM) Glutamax (Gibco, Life Technologies, Carlsbad, CA, USA) supplemented with 10% (v/v) fetal bovine serum (FBS), 100 U/mL penicillin, 100 μg/mL streptomycin (Gibco, Life Technologies), and 750 μg/mL geneticin (G418) (Gibco, Life Technologies). The Chinese Hamster Ovary (CHO) cell lines (Emmanuel Bourinet, Montpellier, France) expressing CaV3.1 were cultured under 5% carbon dioxide at 37 °C in Alpha Minimum Essential Media (MEM) Glutamax (Gibco, Life Technologies), supplemented with 10% (v/v) fetal bovine serum (FBS) and 300 μg/mL geneticin (G418) (Gibco, Life Technologies). The human neuroblastoma SH-SY5 Y cells (Victor Diaz, Goettingen, Germany) were cultured under 5% carbon dioxide at 37 °C in RPMI 1640 antibiotic-free medium (Invitrogen, Carlsbad, CA, USA), supplemented with 15% FBS and 2 mM GlutaMAX™ (Invitrogen). D-PBS (Gibco, Life Technologies) was used to wash the cells, and 0.25% Trypsin-EDTA (Gibco, Life Technologies) was used to detach cells from the flask surface. They were split in a ratio of 1:5 (ideally 1000 cells/cm^2) when they reached 70%–80% confluence (every 2–3 days). Transiently transfected CaV3.1HEK293 T cells were used in FLIPR Assays. HEK 293 T cells were cultured under 5% carbon dioxide at 37 °C in DMEM supplemented with 10% (v/v) FBS. D-PBS was used to wash the cells, and 0.25% Trypsin-EDTA was used to detach cells from the flask surface. The cells were split and seeded at 6 million cells per T175 flask, to reach 70%–80% confluence after 24 h. The next day, 12 μg DNA of human CaV3.1 was incubated in 900 μL serum-free DMEM with 36 μL FuGENE HD transfection reagent (Promega Corporation, Madison, WI, US) (1:3 DNA/Fugene ratio) for 20 min, and then the mixture was added into the cell flask slowly, drop by drop. After the transfection, the cells were cultured under 5% carbon dioxide at 37 °C for 24 h and then moved to a 28 °C incubator.
(§2) HEK 293 cells stably expressing CaV3.2 or CaV3.3 were seeded into 384-well black wall clear bottom plates (Corning, Lowell, MA, USA) at a density of 30,000 cells per well. Transiently transfected CaV3.1HEK293 T cells were seeded into 384-well black wall clear bottom plates at a density of 60,000 cells per well. Once the cells reached 90%–95% confluence after 24 h, the media were removed from the wells and replaced with 20 μL of 10% calcium 4 dye (Molecular Devices, Sunnyvale, CA, USA) in HBSS-HEPES (containing 5 mM KCl, 10 mM HEPES, 140 mM NaCl, 10 mM glucose, and 0.5 mM CaCl2, pH 7.4) with 0.1% bovine serum albumin (BSA). The cells were incubated for 30 min at 37 °C in the presence of 5% carbon dioxide. Each well on the reagent plates for the first addition contained 15 μL different concentrations of compounds dissolved in HBSS-HEPES containing 0.1% BSA and <0.1% DMSO and was incubated for 20 min after loading. Positive and negative controls contained 15 μL of HBSS-HEPES (0.1% BSA) alone. The plates were placed in the FLIPR^TETRA (Molecular Devices, Sunnyvale, CA, USA) programmed to measure maximum fluorescence intensity following a second addition of the agonist 5 mM CaCl2. The data acquisition parameters were adjusted as follows: Baseline fluorescence of 1500–2000 arbitrary fluorescence units (AFU), emission wavelength of 515–575 nm, and excitation wavelength of 470–495 nm. HBSS-HEPES (0.1% BSA) was used in the second addition as a negative control. One fluorescence reading was taken before the second addition. Then the fluorescence readings were recorded every two seconds for 300 s. Raw fluorescence readings in the form of relative light units were converted to response over baseline using ScreenWorks® (Molecular Devices, version 3.2.0.14) software.
(§3) Data were plotted and analyzed using GraphPad Prism v7.0 (GraphPad Software Inc., San Diego, CA, USA).

A further test deals with CaV3.2 (Homo sapiens, UniProt O95180). The test is described as follows: T-type calcium channel window current FLIPR assay, CaV3.2. The test is classed as cell-based. Particulars: FLIPR window current assay, HEK 293 stable, N = 3, mean ± SEM; read-out: IC50 CaV3.2 (LVA CaVs). As to the method:
as §1, §2, §3

The target in the next test is CaV3.3 (Homo sapiens, UniProt Q9P0X4). The test is described as follows: T-type calcium channel window current FLIPR assay, CaV3.3. Particulars: for IC50: FLIPR window current assay, HEK 293 stable, N = 3, mean ± SEM, read-out: IC50 CaV3.3 (LVA CaVs). The test is classed as cell-based. The procedure: as §1, §2, §3
The next test has as its target T2, N-type CaV2.2 (Homo sapiens, UniProt Q00975).
T2 construct: endogenous in cells
The test is described as follows: HVA calcium channel FLIPR assay, N-type (SH-SY5Y cells). The format is cell-based. As to conditions: for IC50: 10 µM nifedipine present, N = 3, mean ± SEM, read-out: IC50 CaV2.2 (HVA CaVs). As to the method:
as §1
SH-SY5Y cells were seeded into 384-well black wall clear bottom plates at a density of 15,000 cells per well, resulting in 90%–95% confluence after 24 h. The media were then removed from the wells and replaced with 20 μL of 10% calcium 4 dye (Molecular Devices) in physiological salt solution (PSS) (containing 5.9 mM KCl, 1.4 mM MgCl2, 10 mM HEPES, 1.2 mM NaH2 PO4, 5 mM NaHCO3, 140 mM NaCl, 11.5 mM glucose, and 1.8 mM CaCl2, pH 7.4) with 0.1% BSA. […] Positive control on the first reagent plate contained 15 μL of PSS (0.1% BSA), whereas PSS (0.1% BSA) containing 1 µM CVID and 10 µM nifedipine (final concentration) was used as a negative control. The fluorescence readings were recorded and converted as described previously, and agonist containing 90 mM KCl + 5 mM CaCl2 was used in the second addition.
Data were plotted and analyzed using GraphPad Prism v7.0 (GraphPad Software Inc., San Diego, CA, USA). A four-parameter logistic Hill equation with variable Hill coefficients was fitted to the data for concentration-response curves. Data are means ± SEM of n independent experiments. Statistical analysis was performed with a paired Student’s t-test with statistical significance at p < 0.05.

For test [1], the system named is L-type calcium channel (CaV1). Nature of the test: HVA calcium channel FLIPR assay, L-type (SH-SY5Y cells). The test is classed as cell-based, human. As to conditions: 1 µM CVID present, N = 3, mean ± SEM, read-out: IC50 CaV1 (HVA CaVs). As to the method: as §1
SH-SY5Y cells were seeded into 384-well black wall clear bottom plates at a density of 15,000 cells per well, resulting in 90%–95% confluence after 24 h. […] The fluorescence readings were recorded and converted as described previously, and agonist containing 90 mM KCl + 5 mM CaCl2 was used in the second addition.
Data were plotted and analyzed using GraphPad Prism v7.0 (GraphPad Software Inc., San Diego, CA, USA). […]

In test [2] the test system is voltage-gated calcium channels (VGCCs). The test is described as follows: FLIPR cell-based assays on VGCCs (overall statement). As to conditions: all VGCC FLIPR assays (CaV3.1, CaV3.2, CaV3.3, CaV2.2, CaV1). The arrangement: species or system human. The procedure: as §2
In test [3] the test system is T-type calcium channel (CaV3.x). The arrangement: method as in PMID 22344687, PMID 19582593. Particulars: activated current generated from the channel-closed state; cited from earlier work.

T2 sequence (Q00975 whole entry): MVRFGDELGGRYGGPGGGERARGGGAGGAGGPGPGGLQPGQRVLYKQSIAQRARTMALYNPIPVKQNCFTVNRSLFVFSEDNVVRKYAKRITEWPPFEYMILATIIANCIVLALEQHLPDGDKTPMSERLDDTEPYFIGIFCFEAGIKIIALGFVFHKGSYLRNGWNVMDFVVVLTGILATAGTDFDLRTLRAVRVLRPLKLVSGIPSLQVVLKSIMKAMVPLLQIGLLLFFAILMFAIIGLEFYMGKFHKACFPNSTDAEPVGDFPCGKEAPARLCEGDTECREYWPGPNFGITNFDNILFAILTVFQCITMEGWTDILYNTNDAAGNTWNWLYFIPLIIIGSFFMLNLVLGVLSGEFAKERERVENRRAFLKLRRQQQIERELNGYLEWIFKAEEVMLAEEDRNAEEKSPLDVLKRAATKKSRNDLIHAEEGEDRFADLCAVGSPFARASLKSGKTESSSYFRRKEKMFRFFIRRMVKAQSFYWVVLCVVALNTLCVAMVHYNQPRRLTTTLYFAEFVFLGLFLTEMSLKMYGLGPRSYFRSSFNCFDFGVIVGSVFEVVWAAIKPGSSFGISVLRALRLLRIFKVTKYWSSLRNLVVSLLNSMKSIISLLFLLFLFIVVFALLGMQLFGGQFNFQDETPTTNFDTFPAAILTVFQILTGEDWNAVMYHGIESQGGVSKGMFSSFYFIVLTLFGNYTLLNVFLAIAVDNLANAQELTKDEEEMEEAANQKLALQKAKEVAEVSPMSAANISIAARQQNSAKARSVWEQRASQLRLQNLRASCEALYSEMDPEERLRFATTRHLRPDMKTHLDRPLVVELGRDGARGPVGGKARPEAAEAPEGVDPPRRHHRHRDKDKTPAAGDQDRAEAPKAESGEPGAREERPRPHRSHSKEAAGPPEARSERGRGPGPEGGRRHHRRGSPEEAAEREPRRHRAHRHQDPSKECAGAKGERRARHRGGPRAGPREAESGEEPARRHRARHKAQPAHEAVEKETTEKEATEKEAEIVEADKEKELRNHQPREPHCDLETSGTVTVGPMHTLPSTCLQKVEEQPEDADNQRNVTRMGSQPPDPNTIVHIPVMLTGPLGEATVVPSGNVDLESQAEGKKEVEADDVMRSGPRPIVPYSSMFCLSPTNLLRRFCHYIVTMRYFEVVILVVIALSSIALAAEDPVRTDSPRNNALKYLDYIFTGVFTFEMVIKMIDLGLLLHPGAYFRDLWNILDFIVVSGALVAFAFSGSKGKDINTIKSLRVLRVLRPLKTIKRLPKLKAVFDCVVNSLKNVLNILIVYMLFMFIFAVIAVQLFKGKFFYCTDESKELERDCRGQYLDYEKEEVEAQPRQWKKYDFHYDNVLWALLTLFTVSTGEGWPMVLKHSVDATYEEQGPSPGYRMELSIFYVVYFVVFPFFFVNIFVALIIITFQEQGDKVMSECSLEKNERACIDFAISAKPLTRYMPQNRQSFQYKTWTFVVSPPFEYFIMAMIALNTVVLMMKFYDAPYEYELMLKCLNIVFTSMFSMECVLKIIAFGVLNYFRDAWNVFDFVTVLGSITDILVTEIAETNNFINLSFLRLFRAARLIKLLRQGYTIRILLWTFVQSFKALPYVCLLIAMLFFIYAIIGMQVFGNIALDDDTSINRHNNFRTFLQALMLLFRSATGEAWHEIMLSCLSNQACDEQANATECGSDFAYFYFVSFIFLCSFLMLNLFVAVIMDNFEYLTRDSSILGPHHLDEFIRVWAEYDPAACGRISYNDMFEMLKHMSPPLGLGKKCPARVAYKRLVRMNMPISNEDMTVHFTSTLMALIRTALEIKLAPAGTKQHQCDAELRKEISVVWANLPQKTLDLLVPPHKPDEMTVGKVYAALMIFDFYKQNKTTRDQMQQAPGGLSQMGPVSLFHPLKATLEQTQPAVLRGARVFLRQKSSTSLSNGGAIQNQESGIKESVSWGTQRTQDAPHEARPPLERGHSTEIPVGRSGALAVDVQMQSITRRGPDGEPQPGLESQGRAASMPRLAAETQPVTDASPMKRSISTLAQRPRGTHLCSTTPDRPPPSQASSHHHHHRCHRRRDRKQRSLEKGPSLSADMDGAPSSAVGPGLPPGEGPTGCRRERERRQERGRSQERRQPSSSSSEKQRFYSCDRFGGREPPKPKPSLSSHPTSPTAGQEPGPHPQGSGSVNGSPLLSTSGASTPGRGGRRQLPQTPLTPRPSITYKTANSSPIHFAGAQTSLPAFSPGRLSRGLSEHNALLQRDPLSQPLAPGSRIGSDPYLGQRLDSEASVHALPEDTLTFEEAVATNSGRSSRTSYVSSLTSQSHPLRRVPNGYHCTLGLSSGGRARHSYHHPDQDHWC
T2 sequence (P54284 whole entry partner): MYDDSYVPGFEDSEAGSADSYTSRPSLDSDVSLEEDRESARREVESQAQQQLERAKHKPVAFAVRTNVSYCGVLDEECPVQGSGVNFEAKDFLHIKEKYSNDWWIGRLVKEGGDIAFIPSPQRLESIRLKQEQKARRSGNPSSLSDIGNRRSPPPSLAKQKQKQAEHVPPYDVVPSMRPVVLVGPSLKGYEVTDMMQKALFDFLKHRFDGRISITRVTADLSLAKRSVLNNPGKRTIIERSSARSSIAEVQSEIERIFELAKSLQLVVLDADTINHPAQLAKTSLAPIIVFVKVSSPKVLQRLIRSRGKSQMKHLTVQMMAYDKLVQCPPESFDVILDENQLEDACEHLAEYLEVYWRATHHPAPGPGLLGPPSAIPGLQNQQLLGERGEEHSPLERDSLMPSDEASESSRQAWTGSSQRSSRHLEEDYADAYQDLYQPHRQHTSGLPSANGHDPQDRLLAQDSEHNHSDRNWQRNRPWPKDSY
T2 sequence (P54289 25-946 partner limits assumed): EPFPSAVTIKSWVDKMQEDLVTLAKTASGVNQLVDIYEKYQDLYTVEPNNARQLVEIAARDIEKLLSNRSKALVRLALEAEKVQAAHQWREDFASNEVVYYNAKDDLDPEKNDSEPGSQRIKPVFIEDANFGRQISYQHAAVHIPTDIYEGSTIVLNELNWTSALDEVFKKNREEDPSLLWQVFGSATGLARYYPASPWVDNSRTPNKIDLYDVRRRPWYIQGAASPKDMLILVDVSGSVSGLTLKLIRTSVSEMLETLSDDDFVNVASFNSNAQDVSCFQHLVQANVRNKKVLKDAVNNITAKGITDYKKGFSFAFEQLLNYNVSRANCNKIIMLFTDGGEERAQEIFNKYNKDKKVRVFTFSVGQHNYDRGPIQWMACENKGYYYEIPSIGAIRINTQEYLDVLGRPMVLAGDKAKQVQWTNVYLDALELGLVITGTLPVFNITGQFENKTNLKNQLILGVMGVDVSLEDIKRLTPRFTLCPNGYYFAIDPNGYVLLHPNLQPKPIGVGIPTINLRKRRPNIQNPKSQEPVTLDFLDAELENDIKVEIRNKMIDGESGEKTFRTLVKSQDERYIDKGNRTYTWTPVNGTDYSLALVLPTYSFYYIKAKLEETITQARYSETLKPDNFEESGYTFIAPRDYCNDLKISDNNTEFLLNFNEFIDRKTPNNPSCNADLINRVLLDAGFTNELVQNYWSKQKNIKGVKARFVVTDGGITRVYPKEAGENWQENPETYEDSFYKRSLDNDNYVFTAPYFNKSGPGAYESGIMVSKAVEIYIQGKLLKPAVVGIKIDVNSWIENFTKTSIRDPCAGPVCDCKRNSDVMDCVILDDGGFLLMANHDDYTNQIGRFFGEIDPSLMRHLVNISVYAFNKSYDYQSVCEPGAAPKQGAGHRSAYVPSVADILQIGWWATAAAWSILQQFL
T2 sequence (P54289 947-1103 partner limits assumed): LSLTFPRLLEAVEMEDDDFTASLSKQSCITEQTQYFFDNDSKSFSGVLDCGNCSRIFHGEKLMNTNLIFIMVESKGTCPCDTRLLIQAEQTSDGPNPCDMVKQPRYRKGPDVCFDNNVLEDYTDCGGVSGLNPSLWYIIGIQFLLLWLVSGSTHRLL

With `CC(C(=O)N[C@@H](Cc1c[nH]c2ccccc12)C(=O)O)(c1c[nH]c2ccccc12)c1c[nH]c2ccccc12` [Compound 3a, (2,2-di(1H-indol-3-yl)propanoyl)-L-tryptophan], the concentration for half-maximal inhibition (IC50) at human CaV3.1 was determined as 122 ± 5.96 µM; at CaV3.2 it was 80.7 ± 6.21 µM; at CaV3.3 it was 90.1 ± 4.99 µM; at N-type CaV2.2 (SH-SY5Y), 147 ± 1.72 µM; in test [1] it was 132 ± 1.63 µM. Besides, the “Inhibition of Ca2+ responses, in words” value in test [2] is given as “poor inhibition”.

With `O=c1[nH]c2ccccc2n1C1CCN(CCCC(c2ccc(F)cc2)c2ccc(F)cc2)CC1` [pimozide, reference compound], the half-maximal inhibitory concentration (IC50) on CaV3.2 was 4.2 ± 1.06 µM; on CaV3.3, 7.71 ± 0.7 µM.

Regarding `C[C@@H](NC(=O)Cc1ccc(C2CC2)cc1)c1ccc(OCC(F)(F)F)cn1` [TTA-A2], the “Potency for T-type window currents versus activated current, in words” value in test [3] was “better potency for T-type window currents than the activated current”.

Consider `CNC(=O)C(NC(=O)C(C)(c1c[nH]c2ccccc12)c1c[nH]c2ccccc12)C(=O)c1c[nH]c2ccccc12` (stereo not drawn) [Compound 1, Pseudellone C], for which, at human CaV3.1 (FLIPR), the “Kind of block of CaV3.1, in words” value was “partial blocking”. The IC50 at human CaV3.1 worked out at 53.5 ± 2.72 µM; on CaV3.2 it was 44 ± 1.6 µM; at CaV3.3, 26.6 ± 1.23 µM; on N-type CaV2.2 (SH-SY5Y) it was 82.5 ± 7.6 µM; in test [1] it was 322 ± 21.6 µM. Besides, the maximum response (Emax) at human CaV3.1 (FLIPR, n = 3, read-out: Emax, inhibition for CaV3.1) came out at 63.6%; at N-type CaV2.2 (SH-SY5Y, n = 3, read-out: Emax, inhibition for N-type CaV2.2), 39.3%. The “Further reduced potency for CaV3.3 compared to 2” value at CaV3.3 (FLIPR) is recorded as more than 3 fold. The “Kind of block of CaV2.2, in words” value at N-type CaV2.2 is “partial blocking”. For the same compound, the “Inhibition of Ca2+ responses, in words” value in test [2] was “weak calcium channel blocker”.

Regarding `CC(C(=O)O)(c1c[nH]c2ccccc12)c1c[nH]c2ccccc12` [Compound 4, 2,2-di(1H-indol-3-yl)propanoic Acid], the IC50 came to 72.28 ± 0.41 µM on human CaV3.1; 132 ± 6.13 µM at CaV3.2; 119 ± 8.66 µM on CaV3.3; 179 ± 19.7 µM on N-type CaV2.2 (SH-SY5Y); 264 ± 11.9 µM in test [1]. Besides, in test [2], the “Inhibition of Ca2+ responses, in words” value is on record as “poor inhibition”.

`CC(C)(C)NC(=O)CN1CCC(CNC(=O)c2cc(F)cc(Cl)c2)CC1` [Compound Z944]: the “Potency for T-type window currents versus activated current, in words” value in test [3] is recorded as “better potency for T-type window currents than the activated current”.
